# Measured values reported in US20260097047A1, “Small molecule inhibitors of the ribosome biogenesis factor NVL2” (Board of Regents, The University of Texas System, priority 2023, published 2026).
# System: HCT116 cells
# Test: Cell viability assay (CellTiter-Glo, 72 hours) in HCT116 human colorectal cancer cells
# Type: cell-based
# Settings: Homo sapiens, HCT-116; Table 4; HCT116, 72 hours; read-out: Activity
# In short: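 Ten-point IC50 came from an asymmetric five-parameter fit of luminescence corrected to vehicle wells. ATP content was measured by CellTiter-Glo 72 h after dosing at 37 °C. Cells were seeded at 2,000/well the day before, with 0.5% DMSO in all wells.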
row,IC50,SMILES
1,< 500 nM,"CC#CCN1C(=O)c2ccccc2Sc2cc(NC(=S)Nc3ccc(OC)nc3)ccc21 [1-(10-(But-2-yn-1-yl)-11-oxo-10,11-dihydrodibenzo[b,f][1,4]thiazepin-7-yl)-3-(6-methoxypyridin-3-yl)thiourea]"

# Same assay, conditions: Homo sapiens, HCT-116; Table 5; HCT116, 72 hours; read-out: Activity
row,IC50,SMILES
1,< 500 nM,"CC#CCN1C(=O)c2ccccc2Cc2cc(Nc3ncccc3C#N)ccc21 [2-((5-(But-2-yn-1-yl)-6-oxo-6,11-dihydro-5H-dibenzo[b,e]azepin-2-yl)amino) nicotinonitrile]"
2,< 500 nM,"CC#CCN1C(=O)c2ccccc2Cc2cc(Nc3nccc(C#N)c3C)ccc21 [2-((5-(But-2-yn-1-yl)-6-oxo-6,11-dihydro-5H-dibenzo[b,e]azepin-2-yl)amino)-3-methylisonicotinonitrile]"
3,< 500 nM,"CC#CCN1C(=O)c2ccc(F)cc2Sc2cc(Nc3ncccc3C#N)ccc21 [2-((10-(But-2-yn-1-yl)-3-fluoro-11-oxo-10,11-dihydrodibenzo[b,f][1,4]thiazepin-7-yl)amino) nicotinonitrile]"
4,< 500 nM,"CC#CCN1C(=O)c2ccccc2Sc2cc(Nc3cc(C#N)ccn3)ccc21 [2-((10-(But-2-yn-1-yl)-11-oxo-10,11-dihydrodibenzo[b,f][1,4]thiazepin-7-yl)amino) isonicotinonitrile]"
5,< 500 nM,"CC#CCN1C(=O)c2ccccc2Sc2cc(Nc3nccc(C#N)c3F)ccc21 [2-((10-(But-2-yn-1-yl)-11-oxo-10,11-dihydrodibenzo[b,f][1,4]thiazepin-7-yl)amino)-3-fluoroisonicotinonitrile]"
6,< 500 nM,"CC#CCN1C(=O)c2ccccc2Sc2cc(Nc3nccc(C#N)c3C)ccc21 [2-((10-(But-2-yn-1-yl)-11-oxo-10,11-dihydrodibenzo[b,f][1,4]thiazepin-7-yl)amino)-3-methylisonicotinonitrile]"
7,< 500 nM,"CC#CCN1C(=O)c2ccccc2Sc2cc(Nc3nccc(C#N)n3)ccc21 [2-((10-(But-2-yn-1-yl)-11-oxo-10,11-dihydrodibenzo[b,f][1,4]thiazepin-7-yl)amino)pyrimidine-4-carbonitrile]"
8,< 500 nM,"CC#CCN1C(=O)c2ccccc2Cc2cc(Nc3nccnc3C#N)ccc21 [3-((5-(But-2-yn-1-yl)-6-oxo-6,11-dihydro-5H-dibenzo[b,e]azepin-2-yl)amino) pyrazine-2-carbonitrile]"
9,< 500 nM,"CC#CCN1C(=O)c2ccccc2Sc2cc(Nc3cccnc3C#N)ccc21 [3-((10-(But-2-yn-1-yl)-11-oxo-10,11-dihydrodibenzo[b,f][1,4]thiazepin-7-yl)amino) picolinonitrile]"
10,< 500 nM,"CC#CCN1C(=O)c2ccccc2Sc2cc(Nc3nnccc3C#N)ccc21 [3-((10-(But-2-yn-1-yl)-11-oxo-10,11-dihydrodibenzo[b,f][1,4]thiazepin-7-yl)amino)pyridazine-4-carbonitrile]"
11,< 500 nM,"CC#CCN1C(=O)c2ccccc2Sc2cc(Nc3ccncc3C#N)ccc21 [4-((10-(But-2-yn-1-yl)-11-oxo-10,11-dihydrodibenzo[b,f][1,4]thiazepin-7-yl)amino) nicotinonitrile]"
12,1000 to 5000 nM,"CC#CCN1C(=O)c2ccccc2Sc2cc(Nc3ncnc(C#N)n3)ccc21 [4-((10-(But-2-yn-1-yl)-11-oxo-10,11-dihydrodibenzo[b,f][1,4]thiazepin-7-yl)amino)-1,3,5-triazine-2-carbonitrile]"
13,< 500 nM,"CC#CCN1C(=O)c2ccccc2Cc2cc(Nc3ncccc3F)ccc21 [5-(But-2-yn-1-yl)-2-((3-fluoropyridin-2-yl)amino)-5H-dibenzo[b,e]azepin-6 (11H)-one]"
14,< 500 nM,"CC#CCN1C(=O)c2ccccc2Cc2cc(Nc3ncccc3C)ccc21 [5-(But-2-yn-1-yl)-2-((3-methylpyridin-2-yl)amino)-5H-dibenzo[b,e]azepin-6 (11H)-one]"
15,< 500 nM,"CC#CCN1C(=O)c2ccccc2Cc2cc(Nc3ncnc(C#N)c3C)ccc21 [6-((5-(But-2-yn-1-yl)-6-oxo-6,11-dihydro-5H-dibenzo[b,e]azepin-2-yl)amino)-5-methylpyrimidine-4-carbonitrile]"
16,< 500 nM,"CC#CCN1C(=O)c2ccccc2Sc2cc(Nc3ncc(C#N)cc3C)ccc21 [6-((10-(But-2-yn-1-yl)-11-oxo-10,11-dihydrodibenzo[b,f][1,4]thiazepin-7-yl)amino)-5-methylnicotinonitrile]"
17,< 500 nM,"CC#CCN1C(=O)c2ccccc2Sc2cc(Nc3nc(C#N)ccc3C)ccc21 [6-((10-(But-2-yn-1-yl)-11-oxo-10,11-dihydrodibenzo[b,f][1,4]thiazepin-7-yl)amino)-5-methylpicolinonitrile]"
18,< 500 nM,"CC#CCN1C(=O)c2ccccc2Sc2cc(Nc3nnc(C#N)cc3C)ccc21 [6-((10-(But-2-yn-1-yl)-11-oxo-10,11-dihydrodibenzo[b,f][1,4]thiazepin-7-yl)amino)-5-methylpyridazine-3-carbonitrile]"

# Same assay, conditions: Homo sapiens, HCT-116; Table 6; HCT116, 72 hours; read-out: Activity
row,IC50,SMILES
1,1000 to 5000 nM,"CC#CCN1C(=O)c2ccccc2Sc2cc(NC3COCC3C#N)ccc21 (stereo not shown) [4-((10-(But-2-yn-1-yl)-11-oxo-10,11-dihydrodibenzo[b,f][1,4]thiazepin-7-yl)amino)tetrahydrofuran-3-carbonitrile]"

# Same assay, conditions: Table 8; analogs of scaffold drawing 43 defined by R^2, R^3, X/Y, W; read-out: Activity (IC50 class, cell viability assay)
row,IC50,SMILES
1,< 500 nM,CC#CCN1C(=O)c2ccc(Cl)cc2Sc2cc(NC(=O)[C@@H]3C[C@H]3C(=O)OC)ccc21 (relative stereo) [—CH2CCMe; trans-2-MeO2C-cPr; CCl/CH; CH]
2,< 500 nM,CC#CCN1C(=O)c2ccccc2Sc2cc(NC(=O)[C@@H]3C[C@H]3C(=O)OC)ccc21 (relative stereo) [—CH2CCMe; trans-2-MeO2C-cPr; CH/CH; CH]
3,< 500 nM,CC#CCN1C(=O)c2ccccc2Sc2cc(NC(=O)[C@@H]3C[C@H]3C(=O)OC)cnc21 (relative stereo) [—CH2CCMe; trans-2-MeO2C-cPr; CH/CH; N]
4,< 500 nM,CC#CCN1C(=O)c2ccc(C#N)cc2Sc2cc(NC(=O)[C@@H]3C[C@H]3COC)ccc21 (relative stereo) [—CH2CCMe; trans-2-MeOCH2-cPr; CCN/CH; CH]
5,< 500 nM,CC#CCN1C(=O)c2ccc(C#N)cc2Sc2cc(NC(=O)[C@@H]3C[C@H]3COC)cnc21 (relative stereo) [—CH2CCMe; trans-2-MeOCH2-cPr; CCN/CH; N]
6,< 500 nM,CC#CCN1C(=O)c2ccc(Cl)cc2Sc2cc(NC(=O)[C@H]3C[C@@H]3COC)ccc21 (relative stereo) [—CH2CCMe; trans-2-MeOCH2-cPr; CCl/CH; CH]
7,< 500 nM,CC#CCN1C(=O)c2ccc(Cl)cc2Sc2cc(NC(=O)[C@H]3C[C@@H]3COC)cnc21 (relative stereo) [—CH2CCMe; trans-2-MeOCH2-cPr; CCl/CH; N]
8,< 500 nM,CC#CCN1C(=O)c2ccc(F)cc2Sc2cc(NC(=O)[C@@H]3C[C@H]3COC)cnc21 (relative stereo) [—CH2CCMe; trans-2-MeOCH2-cPr; CF/CH; N]
9,< 500 nM,CC#CCN1C(=O)c2ccccc2Sc2cc(NC(=O)[C@@H]3C[C@H]3COC)cnc21 (relative stereo) [—CH2CCMe; trans-2-MeOCH2-cPr; CH/CH; N]
10,< 500 nM,O=C(Nc1cnc2c(c1)Sc1ccccc1C(=O)N2CC#CC1CC1)[C@@H]1C[C@H]1CO (relative stereo) [—CH2CC^cPr; trans-2-HOCH2-cPr; CH/CH; N]
11,< 500 nM,COC(=O)[C@@H]1C[C@H]1C(=O)Nc1cnc2c(c1)Sc1ccccc1C(=O)N2CC#CC1CC1 (relative stereo) [—CH2CC^cPr; trans-2-MeO2C-cPr; CH/CH; N]
